What follows are compounds tested on MCH receptors (assay: MCH receptor activity class (method not given)). Conditions: class by percent of control at 10^-7 M or IC50.
COc1cc(NC(=S)N[C@H]2CC[C@@H](Nc3cc(N(C)C)c4ccccc4n3)CC2)cc(OC)c1OC [compound 2175, N-(cis-4-{[4-(dimethylamino)quinolin-2-yl]amino}cyclohexyl)-N′-(3,4,5-trimethoxyphenyl)thiourea] was tested, and the class was 1 (Class 1: The value of percent of control at 10^−7 M was less than 40% or the value of IC50 was less than 50 nM.). COc1ccc(NC(=S)N[C@H]2CC[C@@H](Nc3cc(N(C)C)c4ccccc4n3)CC2)cc1OC [compound 2176] was tested, and the class was 3 (Class 3 The value of percent of control at 10^−7 M was more than 60% or the value of IC50 was more than 200 nM.). For CN(C)c1cc(N[C@H]2CC[C@@H](NC(=S)Nc3ccc(N(C)C)c4ccccc34)CC2)nc2ccccc12 [compound 2177, N-[4-(dimethylamino)-1-naphthyl]-N′-(cis-4-{[4-(dimethylamino)quinolin-2-yl]amino}cyclohexyl)thiourea], the class was 2 (Class 2: The value of percent of control at 10^−7 M was from 40% to 60% or the value of IC′50 was from 50 nM to 200 nM.). For CCc1ccccc1NC(=S)N[C@H]1CC[C@@H](Nc2cc(N(C)C)c3ccccc3n2)CC1 [compound 2178], the class was 3 (Class 3 The value of percent of control at 10^−7 M was more than 60% or the value of IC50 was more than 200 nM.). For CN(C)c1ccnc(N[C@H]2CC[C@@H](NC(=O)Nc3ccccc3Cl)CC2)n1 [compound 2179], the class was 3 (Class 3 The value of percent of control at 10^−7 M was more than 60% or the value of IC50 was more than 200 nM.). Cc1cccc(C)c1NC(=O)N[C@H]1CC[C@@H](Nc2nccc(N(C)C)n2)CC1 [compound 2180] was tested, and the class was 3 (Class 3 The value of percent of control at 10^−7 M was more than 60% or the value of IC50 was more than 200 nM.). For CN(C)c1ccnc(N[C@H]2CC[C@@H](NC(=O)Nc3ccc(F)cc3F)CC2)n1 [compound 2181], the class was 3 (Class 3 The value of percent of control at 10^−7 M was more than 60% or the value of IC50 was more than 200 nM.). With CCc1cccc(C)c1NC(=O)N[C@H]1CC[C@@H](Nc2nccc(N(C)C)n2)CC1 [compound 2182] the class was 3 (Class 3 The value of percent of control at 10^−7 M was more than 60% or the value of IC50 was more than 200 nM.). With CN(C)c1ccnc(N[C@H]2CC[C@@H](NC(=O)Nc3ccc(F)cc3)CC2)n1 [compound 2184] the class was 3 (Class 3 The value of percent of control at 10^−7 M was more than 60% or the value of IC50 was more than 200 nM.). CSc1ccc(NC(=O)N[C@H]2CC[C@@H](Nc3nccc(N(C)C)n3)CC2)cc1 [compound 2185] was tested, and the class was 3 (Class 3 The value of percent of control at 10^−7 M was more than 60% or the value of IC50 was more than 200 nM.). In the case of CN(C)c1ccnc(N[C@H]2CC[C@@H](NC(=O)Nc3ccccc3C(F)(F)F)CC2)n1 [compound 2186], the class was 3 (Class 3 The value of percent of control at 10^−7 M was more than 60% or the value of IC50 was more than 200 nM.). With Cc1cc(C)c(NC(=O)N[C@H]2CC[C@@H](Nc3nccc(N(C)C)n3)CC2)c(C)c1 [compound 2187, N-(cis-4-{[4-(dimethylamino)pyrimidin-2-yl]amino}cyclohexyl)-N′-mesitylurea] the class was 2 (Class 2: The value of percent of control at 10^−7 M was from 40% to 60% or the value of IC′50 was from 50 nM to 200 nM.). With Cc1ccccc1NC(=O)N[C@H]1CC[C@@H](Nc2nccc(N(C)C)n2)CC1 [compound 2188] the class was 3 (Class 3 The value of percent of control at 10^−7 M was more than 60% or the value of IC50 was more than 200 nM.). In the case of CN(C)c1ccnc(N[C@H]2CC[C@@H](NC(=O)Nc3c(Cl)cc(Cl)cc3Cl)CC2)n1 [compound 2189, N-(cis-4-{[4-(dimethylamino)pyrimidin-2-yl]amino}cyclohexyl)-N′-(2,4,6-trichlorophenyl)urea], the class was 1 (Class 1: The value of percent of control at 10^−7 M was less than 40% or the value of IC50 was less than 50 nM.). In the case of CN(C)c1ccnc(N[C@H]2CC[C@@H](NC(=O)Nc3c(F)cc(Br)cc3Br)CC2)n1 [compound 2191, N-(2,4-dibromo-6-fluorophenyl)-N′-(cis-4-{[4-(dimethylamino)pyrimidin-2-yl]amino}cyclohexyl)urea], the class was 1 (Class 1: The value of percent of control at 10^−7 M was less than 40% or the value of IC50 was less than 50 nM.). For CCc1cccc(CC)c1NC(=O)N[C@H]1CC[C@@H](Nc2nccc(N(C)C)n2)CC1 [compound 2192], the class was 3 (Class 3 The value of percent of control at 10^−7 M was more than 60% or the value of IC50 was more than 200 nM.). For CN(C)c1ccnc(N[C@H]2CC[C@@H](NC(=O)Nc3c(Cl)cccc3C(F)(F)F)CC2)n1 [compound 2193], the class was 3 (Class 3 The value of percent of control at 10^−7 M was more than 60% or the value of IC50 was more than 200 nM.). With Cc1cccc(Cl)c1NC(=O)N[C@H]1CC[C@@H](Nc2nccc(N(C)C)n2)CC1 [compound 2194] the class was 3 (Class 3 The value of percent of control at 10^−7 M was more than 60% or the value of IC50 was more than 200 nM.). CN(C)c1ccnc(N[C@H]2CC[C@@H](NC(=O)NCc3ccccc3Cl)CC2)n1 [compound 2195] was tested, and the class was 3 (Class 3 The value of percent of control at 10^−7 M was more than 60% or the value of IC50 was more than 200 nM.). In the case of CCc1cccc(C(C)C)c1NC(=O)N[C@H]1CC[C@@H](Nc2nccc(N(C)C)n2)CC1 [compound 2196], the class was 3 (Class 3 The value of percent of control at 10^−7 M was more than 60% or the value of IC50 was more than 200 nM.). CCc1ccccc1NC(=O)N[C@H]1CC[C@@H](Nc2nccc(N(C)C)n2)CC1 [compound 2197] was tested, and the class was 3 (Class 3 The value of percent of control at 10^−7 M was more than 60% or the value of IC50 was more than 200 nM.). For CN(C)c1ccnc(N[C@H]2CC[C@@H](NC(=O)Nc3ccccc3I)CC2)n1 [compound 2198], the class was 3 (Class 3 The value of percent of control at 10^−7 M was more than 60% or the value of IC50 was more than 200 nM.). Cc1cccc(C(C)C)c1NC(=O)N[C@H]1CC[C@@H](Nc2nccc(N(C)C)n2)CC1 [compound 2199] was tested, and the class was 3 (Class 3 The value of percent of control at 10^−7 M was more than 60% or the value of IC50 was more than 200 nM.). With CC(C)c1ccccc1NC(=O)N[C@H]1CC[C@@H](Nc2nccc(N(C)C)n2)CC1 [compound 2200] the class was 3 (Class 3 The value of percent of control at 10^−7 M was more than 60% or the value of IC50 was more than 200 nM.). Cc1c(NC(=O)N[C@H]2CC[C@@H](Nc3nccc(N(C)C)n3)CC2)cccc1[N+](=O)[O-] [compound 2201] was tested, and the class was 3 (Class 3 The value of percent of control at 10^−7 M was more than 60% or the value of IC50 was more than 200 nM.). CCCc1ccccc1NC(=O)N[C@H]1CC[C@@H](Nc2nccc(N(C)C)n2)CC1 [compound 2202] was tested, and the class was 3 (Class 3 The value of percent of control at 10^−7 M was more than 60% or the value of IC50 was more than 200 nM.). Cc1cccc(C(C)(C)C)c1NC(=O)N[C@H]1CC[C@@H](Nc2nccc(N(C)C)n2)CC1 [compound 2203] was tested, and the class was 3 (Class 3 The value of percent of control at 10^−7 M was more than 60% or the value of IC50 was more than 200 nM.). For CN(C)c1ccnc(N[C@H]2CC[C@@H](NC(=O)Nc3ccccc3C(C)(C)C)CC2)n1 [compound 2204], the class was 3 (Class 3 The value of percent of control at 10^−7 M was more than 60% or the value of IC50 was more than 200 nM.). For Cc1c(Cl)cccc1NC(=O)N[C@H]1CC[C@@H](Nc2nccc(N(C)C)n2)CC1 [compound 2205], the class was 3 (Class 3 The value of percent of control at 10^−7 M was more than 60% or the value of IC50 was more than 200 nM.). In the case of CN(C)c1ccnc(N[C@H]2CC[C@@H](NC(=O)Nc3c(F)cc(Br)cc3F)CC2)n1 [compound 2206], the class was 3 (Class 3 The value of percent of control at 10^−7 M was more than 60% or the value of IC50 was more than 200 nM.). CN(C)c1ccnc(N[C@H]2CC[C@@H](NC(=O)Nc3ccc(Cl)cc3C(F)(F)F)CC2)n1 [compound 2207] was tested, and the class was 3 (Class 3 The value of percent of control at 10^−7 M was more than 60% or the value of IC50 was more than 200 nM.). CN(C)c1ccnc(N[C@H]2CC[C@@H](NC(=O)Nc3ccc(C#N)cc3)CC2)n1 [compound 2208] was tested, and the class was 3 (Class 3 The value of percent of control at 10^−7 M was more than 60% or the value of IC50 was more than 200 nM.). In the case of CN(C)c1ccnc(N[C@H]2CC[C@@H](NC(=O)NC(c3ccccc3)c3ccccc3)CC2)n1 [compound 2209, N-(cis-4-{[4-(dimethylamino)pyrimidin-2-yl]amino}cyclohexyl)-N′-(diphenylmethyl)urea], the class was 1 (Class 1: The value of percent of control at 10^−7 M was less than 40% or the value of IC50 was less than 50 nM.). With Cc1cc(Br)cc(C)c1NC(=O)N[C@H]1CC[C@@H](Nc2nccc(N(C)C)n2)CC1 [compound 2210, N-(4-bromo-2,6-dimethylphenyl)-N′-(cis-4-{[4-(dimethylamino)pyrimidin-2-yl]amino}cyclohexyl)urea] the class was 1 (Class 1: The value of percent of control at 10^−7 M was less than 40% or the value of IC50 was less than 50 nM.). For Cc1noc(-c2ccccc2)c1NC(=O)N[C@H]1CC[C@@H](Nc2nccc(N(C)C)n2)CC1 [compound 2211], the class was 3 (Class 3 The value of percent of control at 10^−7 M was more than 60% or the value of IC50 was more than 200 nM.). In the case of Cc1cc(NC(=O)N[C@H]2CC[C@@H](Nc3nccc(N(C)C)n3)CC2)c(C(F)(F)F)o1 [compound 2212], the class was 3 (Class 3 The value of percent of control at 10^−7 M was more than 60% or the value of IC50 was more than 200 nM.). With CN(C)c1ccnc(N[C@H]2CC[C@@H](NC(=O)Nc3ccccc3Br)CC2)n1 [compound 2213] the class was 3 (Class 3 The value of percent of control at 10^−7 M was more than 60% or the value of IC50 was more than 200 nM.). For CN(C)c1ccnc(N[C@H]2CC[C@@H](NC(=O)Nc3ccccc3-c3ccccc3)CC2)n1 [compound 2214], the class was 3 (Class 3 The value of percent of control at 10^−7 M was more than 60% or the value of IC50 was more than 200 nM.). For CCCCNC(=O)N[C@H]1CC[C@@H](Nc2nccc(N(C)C)n2)CC1 [compound 2215], the class was 3 (Class 3 The value of percent of control at 10^−7 M was more than 60% or the value of IC50 was more than 200 nM.). Cc1cccc(NC(=O)N[C@H]2CC[C@@H](Nc3nccc(N(C)C)n3)CC2)c1C [compound 2216] was tested, and the class was 3 (Class 3 The value of percent of control at 10^−7 M was more than 60% or the value of IC50 was more than 200 nM.).
